Source: PubChem BioAssay (NCI)
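Growth conditions: 96-well plates. Treatment: test compound, 48 hours, 5 concentrations. Analysis: linear interpolation between bracketing concentrations; unreached endpoints set to highest concentration. GI50: concentration for 50% inhibition of growth. TGI: concentration producing complete growth inhibition.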

Legend:
Experiment in all cases: NCI-60 cell line screen, 48 h
[1] = system: 786-0 renal
[2] = system: A498 renal
[3] = system: ACHN renal
[4] = system: CAKI-1 renal
[5] = system: EKVX NSCLC
[6] = system: HCC-2998 colon
[7] = system: HCT-116 colon
[8] = system: NCI-H460 lung
[9] = system: RXF 393 renal
[10] = system: MCF7 breast
[11] = system: T-47D breast
[12] = system: BT-549 breast
[13] = system: RPMI-8226 leukemia

| SMILES | TGI [1] [µM] | TGI [2] [µM] | TGI [3] [µM] | TGI [4] [µM] | TGI [5] [µM] | TGI [6] [µM] | TGI [7] [µM] | TGI [8] [µM] | TGI [9] [µM] | TGI [10] [µM] | TGI [11] [µM] | TGI [12] [µM] | TGI [13] [µM] | GI50 [4] [µM] | GI50 [5] [µM] | GI50 [6] [µM] | GI50 [7] [µM] | GI50 [10] [µM] | GI50 [9] [µM] | GI50 [11] [µM] |
| --- | --- | --- | --- | --- | --- | --- | --- | --- | --- | --- | --- | --- | --- | --- | --- | --- | --- | --- | --- | --- |
| O=C1/C(=C/c2ccccc2)CCCC/C1=C\c1ccccc1 | > 100 | > 100 | > 100 | > 100 | > 100 | > 100 | > 100 | > 100 | 59.5 | – | – | – | – | – | – | – | – | – | – | – |
| O=C(O)CCSc1nnc(COc2ccc(Cl)cc2)n1-c1ccccc1 | > 100 | > 100 | > 100 | > 100 | > 100 | > 100 | > 100 | > 100 | > 100 | > 100 | > 100 | – | – | – | – | – | – | – | – | – |
| O=C1c2cccnc2C(=O)c2c1nc1ccccc1c2-c1cncc(-c2c3c(nc4ccccc24)C(=O)c2cccnc2C3=O)c1 | 0.228 | 5.39 | 0.437 | 1.64 | 1.73 | 1.47 | 0.352 | 0.516 | 5.48 | – | 2.91 | 1.52 | 0.808 | – | – | – | – | – | – | – |
| COC(=O)c1cc(C#N)[nH]c1-c1cccs1 | > 100 | 86 | > 100 | > 100 | > 100 | > 100 | > 100 | > 100 | 86.1 | – | > 100 | > 100 | > 100 | – | – | – | – | – | – | – |
| CCOC(=O)/C(=C\NC(C)(C)C)c1nc2ccccc2o1 | 70.7 | > 100 | 68.5 | > 100 | > 100 | – | > 100 | > 100 | 67.1 | > 100 | – | > 100 | 50.8 | – | – | – | – | – | – | – |
| C/C(=C\COP(=O)(O)OP(=O)(O)O)CC/C=C(\C)CNc1ccc([N+](=O)[O-])cc1 | > 100 | – | > 100 | > 100 | > 100 | – | > 100 | > 100 | > 100 | > 100 | > 100 | – | > 100 | – | – | – | – | – | – | – |
| CC1=[N+]([O-])C(C)(C)N(O)C1(C)C | > 100 | > 100 | > 100 | – | > 100 | > 100 | > 100 | > 100 | > 100 | > 100 | > 100 | – | > 100 | – | – | – | – | – | – | – |
| Cc1ccc(S(=O)(=O)n2cnc(CC(NC(=O)C3CCC(=O)N3C(=O)OCc3ccccc3)C(=O)N3CCCC3C(=O)NN)c2)cc1 (stereo unspecified) | > 100 | > 100 | > 100 | – | > 100 | > 100 | > 100 | > 100 | – | > 100 | – | > 100 | > 100 | – | – | – | – | – | – | – |
| COC(=O)/C(=C/CC(N=C(c1ccccc1)c1ccccc1)C(=O)OC)N=C(c1ccccc1)c1ccccc1 (stereo unspecified) | > 100 | – | > 100 | > 100 | > 100 | > 100 | > 100 | > 100 | > 100 | – | – | – | > 100 | – | – | – | – | – | – | – |
| O=c1[nH]n(Cc2ccccc2CCl)c2ccc([N+](=O)[O-])cc12 | > 100 | > 100 | > 100 | 63.3 | > 100 | 42.4 | > 100 | 95.8 | > 100 | > 100 | – | – | > 100 | – | – | – | – | – | – | – |
| O=c1[nH]c2ccsc2c(=O)n1COCc1ccccc1 | > 100 | > 100 | > 100 | > 100 | > 100 | > 100 | > 100 | > 100 | > 100 | > 100 | – | > 100 | > 100 | – | – | – | – | – | – | – |
| O=C(NN1C(=O)c2ccccc2C1=O)c1ccccc1Nc1ccccc1C(=O)NN1C(=O)c2ccccc2C1=O | > 100 | – | > 100 | > 100 | > 100 | > 100 | > 100 | > 100 | > 100 | > 100 | – | > 100 | > 100 | – | – | – | – | – | – | – |
| O=Cc1ccc2c(c1)CC1(C2)Cc2ccc(C=O)cc2C1 | 32 | 69.7 | 62.1 | > 100 | > 100 | > 91.8 | 19.6 | 32.8 | > 25.4 | > 70 | 71.8 | – | 22.1 | – | – | – | – | – | – | – |
| O=C(/C=C\c1ccccc1-c1ccccc1)c1ccccc1 | > 100 | > 100 | > 100 | > 100 | > 100 | > 100 | > 100 | > 100 | > 100 | – | 96 | – | > 100 | – | – | – | – | – | – | – |
| CO[C@H](c1ccccc1)[C@H](O)[C@](O)(c1ccccc1)P(=O)(OC)OC | > 100 | > 100 | > 100 | > 100 | > 100 | > 100 | > 100 | > 100 | > 100 | – | > 100 | > 100 | > 100 | – | – | – | – | – | – | – |
| CSC(=N)N1N=C2c3ccccc3CC[C@@H]2[C@@H]1c1ccccc1 | 25.6 | 35.2 | 50.2 | – | 44.4 | 29.4 | 17.7 | 27.2 | 27.7 | – | – | – | 35.5 | – | – | – | – | – | – | – |
| Cc1cc2nc3c(C#N)c(-c4ccccc4)cc(Nc4ccc(F)cc4)n3c2cc1C | 22.5 | 93.5 | > 100 | > 100 | 52.9 | – | > 100 | – | 61.3 | – | > 100 | 56.3 | > 100 | – | – | – | – | – | – | – |
| CCOn1cc(C2=C(c3c[nH]c4ccccc34)C(=O)NC2=O)c2ccccc21 | 15.7 | – | 16.4 | < 0.0306 | 29.9 | < 0.01 | 4.03 | 15.4 | – | 1.03 | > 100 | – | 5.28 | < 0.0121 | 14.6 | < 0.01 | < 0.0217 | < 0.0149 | < 0.0325 | 18.5 |
| CCOC(=O)/C=C1\Nc2ccccc2-n2nnnc21 | > 100 | > 100 | > 100 | > 100 | > 100 | > 100 | > 100 | > 100 | > 100 | – | – | – | > 100 | – | – | – | – | – | – | – |
| Nc1c(Cl)c([N+](=O)[O-])cc2c1OCCCCO2 | > 100 | – | > 100 | > 100 | > 100 | > 100 | > 100 | > 100 | > 100 | > 100 | > 100 | – | > 100 | – | – | – | – | – | – | – |
| O=C(CCCN1CC=C(n2c(=O)[nH]c3ccccc32)CC1)c1cccs1 | > 100 | > 100 | > 100 | > 100 | > 100 | > 100 | > 100 | > 100 | > 100 | > 100 | > 100 | – | > 100 | – | – | – | – | – | – | – |
| CN(CCO)c1nc2c(c(=O)[nH]1)CNCC2 | > 100 | – | > 100 | > 100 | > 100 | > 100 | > 100 | > 100 | > 100 | – | – | – | > 100 | – | – | – | – | – | – | – |
| COc1cc(-c2c(C)c(C)nc(OC)c2C#N)cc(OC)c1OC | > 100 | > 100 | > 100 | – | > 100 | > 100 | > 100 | > 100 | > 100 | – | – | – | > 100 | – | – | – | – | – | – | – |
| C/C(=N/NC(=S)N1CCCC1)c1cccc(/C(C)=N\NC(=S)N2CCCC2)n1 | 2.66 | 2.59 | 3.4 | 3.37 | 3.49 | 2.86 | 3.28 | 3.63 | 3.18 | – | – | 5.13 | 18.1 | – | – | – | – | – | – | – |
| COc1cc(CCCC(O)COc2cccc3c2C2(O)CCCCCC32)cc(OC)c1 (stereo unspecified) | 28.7 | 34.1 | 29.4 | 44.4 | 30.6 | 17.9 | 31.5 | 34.7 | 43.2 | – | – | – | 42 | – | – | – | – | – | – | – |
| O=C(Nc1ccccc1)C(=O)C(C(=O)c1ccccc1)C(c1ccccc1)c1ccccc1 (stereo unspecified) | > 10 | – | – | > 10 | > 10 | > 10 | – | – | > 10 | > 10 | > 10 | – | > 10 | – | – | – | – | – | – | – |
| Nc1ccc(C(=O)NN2C(=O)C(Cl)C2c2ccccc2O)cc1 (stereo unspecified) | > 100 | – | > 100 | > 100 | > 100 | 98.5 | > 100 | > 100 | – | – | – | – | > 100 | – | – | – | – | – | – | – |
| C/C(=C/CNc1ncnc2c1ncn2CCC#N)CO | > 100 | > 100 | > 100 | > 100 | > 100 | > 100 | > 100 | > 100 | > 100 | > 100 | > 100 | – | > 100 | – | – | – | – | – | – | – |
| CCOC(=O)C1C(c2ccc([N+](=O)[O-])cc2)NC(c2ccc([N+](=O)[O-])cc2)C(C(=O)OC)S1(=O)=O (stereo unspecified) | > 100 | – | > 100 | > 100 | > 100 | > 100 | > 100 | > 100 | > 100 | – | – | – | > 100 | – | – | – | – | – | – | – |
| COc1ccc(-c2cc(-c3ccco3)c(C#N)c(=S)n2C2OC(CO)C(O)C(O)C2O)cc1 (stereo unspecified) | > 100 | > 100 | > 100 | > 100 | > 100 | > 100 | > 100 | > 100 | > 100 | > 100 | – | > 100 | > 100 | – | – | – | – | – | – | – |
